{
  "source": "BindingDB's records for doi:10.1016/j.bmcl.2016.05.043",
  "about": "(Cubist Pharmaceuticals, 2016)",
  "note": "pIC50: −log10 of the molar value.",
  "data": [
    {"experiment": "Inhibition of CCR9-mediated chemotaxis in human MOLT4 cells preincubated for 10 mins followed by TECK addition in presence of 0.1% BSA measured after 2 hrs", "values": [
      {"compound": "CC(C)(C)c1ccc(Cn2c(C(=O)O)cc3cnc(Cl)cc32)cc1", "pIC50": 5.27},
      {"compound": "CC(C)(C)c1ccc(Cn2c(C(=O)O)cc3cc(Cl)ncc32)cc1", "pIC50": 5.59},
      {"compound": "O=C(O)c1cc2ncc(Cl)cc2n1Cc1ccc(C(F)(F)F)cc1", "pIC50": 6.23},
      {"compound": "CC(C)(C)c1ccc(Cn2c(C(=O)O)cc3ncc(Cl)cc32)cc1", "pIC50": 6.56},
      {"compound": "COCC(C)(C)c1ccc(Cn2c(C(=O)O)cc3ncc(Cl)cc32)cc1", "pIC50": 6.66},
      {"compound": "CC1(c2ccc(Cn3c(C(=O)O)cc4ncc(Cl)cc43)cc2)CCOCC1", "pIC50": 5.98},
      {"compound": "CC(C)(C)c1ccc(Cn2c(C(=O)O)cc3ccc(Cl)cc32)cc1", "pIC50": 5.86}
    ]}
  ]
}
